According to patent publication US9261498B2, “Biomarker for sensitivity to mTOR inhibitor therapy in kidney cancer” (The Regents of the University of California, priority 2005, dated 2016):
Entries after “also recorded” stand apart in the source; their conditions may differ.

Test system: SN12C-VHLshRNA-HIF-1α mutant and SN12C-VHLshRNA-HIF-2α mutant cells
Assay: In vitro growth of VHL knockdown cells expressing prolyl hydroxylation defective HIF mutants
Type: cell-based, human
Details: 1 or 10 nM CCI-779, 5 days
Procedure: FIGS. 4A-4C. Rescue of CCI-779 growth suppression by HIF-1-α and HIF-2-α prolyl hydcroxylase mutants. SN12C-CSCG-VHLshRNA cells stably infected with the prolyl hydroxylation defective cDNA mutants p-Babe-puro-HA-HIF-1α (P564A), HIF-2α (P405A; P531A) or backbone vector were treated with CCI-779 or vehicle and harvested 24 hours later. (a) Lysates were subjected to immunoblotting for HIF-1α, HIF-2α, GLUT-1, CA-IX, p-eIF4G, p-S6 and β-Actin as loading control. (b) SN12C-VHLshRNA, SN12C-VHLshRNA-HIF-1α mutant, SN12C-VHLshRNA-HIF-2α mutant cells (1×10^5) were cultured in 10% serum rich media, in the presence of vehicle, 1 or 10 nM of CCI-779 for 5 days. Cell growth was measured by cell counts (n=3). […]
For in vitro experiments, cells (5×10^4) were plated and treated with 1 and 10 nM CCI-779 (kind gift of J. Gibbons, Wyeth) or vehicle (ethanol). On day 5-post treatment, cells were trypsinized, resuspended in DMEM with 10% FBS and counted using the VI CELL counter (Beckman Coulter), according to the manufacturer's instructions. […] In vivo tumorigenicity was measured by injection of 5×10^5 SN12C-CSCG, ACHN-CSCG, SN12C-CSCG-VHLshRNAi, ACHN-CSCG-VHLshRNAi, SN12C-CSCG-VHLshRNAi-pBABE, SN12C-CSCG-VHLshRNAi-pBABE-HA-HIF-2α (P405A; P531A) cells in 100 μl of Matrigel (Collaborative Biomedical) subcutaneously into the flanks of SCID mice. […]

CO[C@H]1C[C@@H]2CC[C@@H](C)[C@@](O)(O2)C(=O)C(=O)N2CCCC[C@H]2C(=O)O[C@H]([C@H](C)C[C@@H]2CC[C@@H](OC(=O)C(C)(CO)CO)[C@H](OC)C2)CC(=O)[C@H](C)/C=C(\C)[C@@H](O)[C@@H](OC)C(=O)[C@H](C)C[C@H](C)/C=C/C=C/C=C/1C [CCI-779]
growth inhibitory effect of CCI-779 in cells expressing HIF mutants, in vitro: completely rescued; also recorded: reversal of both the in vitro and in vivo sensitivity
